Measurements from paper doi:10.1101/2021.10.13.464265v1 (biorxiv, 2021).
Read-outs that look alike come from different tables or passages of the source.

Key:
[1] = target: T1, PgaCDm (PgaC V227L PgaD N75D/K76E) (Escherichia coli, UniProt P75905, V227L); test: WGA-HRP dot blot of PNAG, densitometry; type: biochemical
T1 sequence (P75905 1-441 V227L): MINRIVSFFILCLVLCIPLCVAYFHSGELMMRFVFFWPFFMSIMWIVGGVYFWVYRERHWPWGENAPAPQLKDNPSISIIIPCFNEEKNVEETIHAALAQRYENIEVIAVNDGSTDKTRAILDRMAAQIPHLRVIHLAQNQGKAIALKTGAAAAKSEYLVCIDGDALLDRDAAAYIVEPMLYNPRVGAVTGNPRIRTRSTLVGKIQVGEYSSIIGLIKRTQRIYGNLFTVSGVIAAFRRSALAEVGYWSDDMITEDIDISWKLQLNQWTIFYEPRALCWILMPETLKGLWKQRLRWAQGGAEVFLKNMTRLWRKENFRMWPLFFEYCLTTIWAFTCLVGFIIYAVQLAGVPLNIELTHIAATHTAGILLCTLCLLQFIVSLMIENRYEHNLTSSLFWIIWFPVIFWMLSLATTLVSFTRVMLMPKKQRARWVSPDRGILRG
T1 sequence (P69432 1-137 N75D/K76E partner): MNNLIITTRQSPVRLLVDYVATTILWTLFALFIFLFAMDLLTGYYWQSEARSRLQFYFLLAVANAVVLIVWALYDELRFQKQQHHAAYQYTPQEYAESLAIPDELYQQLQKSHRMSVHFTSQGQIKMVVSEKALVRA

E. coli csrA::kanB = test: microbe, parasite or virus in culture; set-up: species or system E. coli MG1655 csrA::kanB; conditions: Escherichia coli, read-out: csrA::kanB [Ara] = 0 mg/L
[2] = test system: E. coli csrA::kanB pBAD-nahKm; test: microbe, parasite or virus in culture; set-up: species or system E. coli MG1655 csrA::kanB; conditions: Escherichia coli, read-out: pBAD-nahKm [Ara] = 50 mg/L
[3] = test system: E. coli csrA::kanB pBAD-nahK; test: microbe, parasite or virus in culture; set-up: species or system E. coli MG1655 csrA::kanB; conditions: Escherichia coli, read-out: pBAD-nahK [Ara] = 0 mg/L
[4] = test system: E. coli csrA::kanB pBAD-nahK; test: microbe, parasite or virus in culture; set-up: species or system E. coli MG1655 csrA::kanB; conditions: Escherichia coli, read-out: pBAD-nahK [Ara] = 50 mg/L
[5] = test system: E. coli csrA::kanB pBAD-nahK; test: microbe, parasite or virus in culture; set-up: species or system E. coli MG1655 csrA::kanB; conditions: Escherichia coli, read-out: pBAD-nahK [Ara] = 50 mg/L, DTT

Row | IC50 [2] | IC50 [3] | IC50 [4] | Structure (SMILES) | IC50 [1] | other results
1 |  |  |  | O=c1ccn([C@@H]2O[C@H](COP(=O)(O)OP(=O)(O)O)[C@@H](O)[C@H]2O)c(=O)[nH]1 [UDP] | 2700 ± 900 µM | 
2 | 500 ± 100 µM | 330 ± 10 µM | 8 ± 2 µM | CC(=O)N[C@H]1C(O)O[C@H](C)[C@@H](O)[C@@H]1O (mixture of isomers) [1-H, 6-deoxyGlcNAc] |  | IC50 (E. coli csrA::kanB): 530 ± 30 µM
3 | > 2000 µM | > 2000 µM | 130 µM | CC(=O)NC1C(O)OC(CS)C(O)C1O (centres unmarked) [1-SH, 6-thioGlcNAc] |  | IC50 [5]: 64 ± 2 µM
4 |  |  |  | CC(=O)N[C@H]1[C@@H](OP(=O)(O)OP(=O)(O)OC[C@H]2O[C@@H](n3ccc(=O)[nH]c3=O)[C@H](O)[C@@H]2O)O[C@H](CS)[C@@H](O)[C@@H]1O [2-SH, UDP-6-thioGlcNAc] | 60 ± 20 µM | 
5 |  |  |  | CC(=O)N[C@H]1[C@@H](OP(=O)(O)OP(=O)(O)OC[C@H]2O[C@@H](n3ccc(=O)[nH]c3=O)[C@H](O)[C@@H]2O)O[C@H](C)[C@@H](O)[C@@H]1O [2-H, UDP-6-deoxyGlcNAc] | 30 µM | 
6 |  |  |  | CC(=O)N[C@H]1[C@@H](OP(=O)(O)OP(=O)(O)OC[C@H]2O[C@@H](n3ccc(=O)[nH]c3=O)[C@H](O)[C@@H]2O)O[C@H](CF)[C@@H](O)[C@@H]1O [2-F, UDP-6-fluoroGlcNAc] | 150 ± 10 µM | 
7 | > 2000 µM | > 2000 µM | 150 ± 60 µM | CC(=O)NC1C(O)OC(CN)C(O)C1O (centres unmarked) [1-NH2, 6-aminoGlcNAc] |  | 
8 |  |  |  | CC(=O)N[C@H]1[C@@H](OP(=O)(O)OP(=O)(O)OC[C@H]2O[C@@H](n3ccc(=O)[nH]c3=O)[C@H](O)[C@@H]2O)O[C@H](CN)[C@@H](O)[C@@H]1O [2-NH2, 6-amino derivative] | 480 ± 60 µM | 
9 | > 2000 µM | > 2000 µM | 13 ± 3 µM | CC(=O)N[C@H]1C(O)O[C@H](CF)[C@@H](O)[C@@H]1O (mixture of isomers) [1-F, 6-fluoroGlcNAc] |  | 
10 |  |  |  | CC(=O)N[C@H]1[C@@H](OP(=O)(O)OP(=O)(O)OC[C@H]2O[C@@H](n3ccc(=O)[nH]c3=O)[C@H](O)[C@@H]2O)O[C@H](CN=[N+]=[N-])[C@@H](O)[C@@H]1O [2-N3, 6-azido analogue] | > 10000 µM | 

Row | Structure (SMILES) | IC50 [2] | IC50 [3] | IC50 [4] | IC50 [1] | other results
11 | CC(=O)NC1C(O)OC(CN=[N+]=[N-])C(O)C1O (centres unmarked) [1-N3, 6-azidoGlcNAc] | > 5000 µM | > 5000 µM | 2700 ± 400 µM |  | 
